Assay results from ChEMBL document CHEMBL1156696, “Structure activity relationships of quinoline-containing c-Met inhibitors” (Eur J Med Chem, 2008).
pKi: −log10 of the molar value.

Assays:
[1] = target: T1, Hepatocyte growth factor receptor (Homo sapiens, UniProt P08581); assay: Inhibition of human activated c-Met at 1 uM by PK/LDH coupled kinetic assay
[2] = target: T1, Hepatocyte growth factor receptor; assay: Inhibition of human activated c-Met by PK/LDH coupled kinetic assay

T1 sequence (P08581 whole entry): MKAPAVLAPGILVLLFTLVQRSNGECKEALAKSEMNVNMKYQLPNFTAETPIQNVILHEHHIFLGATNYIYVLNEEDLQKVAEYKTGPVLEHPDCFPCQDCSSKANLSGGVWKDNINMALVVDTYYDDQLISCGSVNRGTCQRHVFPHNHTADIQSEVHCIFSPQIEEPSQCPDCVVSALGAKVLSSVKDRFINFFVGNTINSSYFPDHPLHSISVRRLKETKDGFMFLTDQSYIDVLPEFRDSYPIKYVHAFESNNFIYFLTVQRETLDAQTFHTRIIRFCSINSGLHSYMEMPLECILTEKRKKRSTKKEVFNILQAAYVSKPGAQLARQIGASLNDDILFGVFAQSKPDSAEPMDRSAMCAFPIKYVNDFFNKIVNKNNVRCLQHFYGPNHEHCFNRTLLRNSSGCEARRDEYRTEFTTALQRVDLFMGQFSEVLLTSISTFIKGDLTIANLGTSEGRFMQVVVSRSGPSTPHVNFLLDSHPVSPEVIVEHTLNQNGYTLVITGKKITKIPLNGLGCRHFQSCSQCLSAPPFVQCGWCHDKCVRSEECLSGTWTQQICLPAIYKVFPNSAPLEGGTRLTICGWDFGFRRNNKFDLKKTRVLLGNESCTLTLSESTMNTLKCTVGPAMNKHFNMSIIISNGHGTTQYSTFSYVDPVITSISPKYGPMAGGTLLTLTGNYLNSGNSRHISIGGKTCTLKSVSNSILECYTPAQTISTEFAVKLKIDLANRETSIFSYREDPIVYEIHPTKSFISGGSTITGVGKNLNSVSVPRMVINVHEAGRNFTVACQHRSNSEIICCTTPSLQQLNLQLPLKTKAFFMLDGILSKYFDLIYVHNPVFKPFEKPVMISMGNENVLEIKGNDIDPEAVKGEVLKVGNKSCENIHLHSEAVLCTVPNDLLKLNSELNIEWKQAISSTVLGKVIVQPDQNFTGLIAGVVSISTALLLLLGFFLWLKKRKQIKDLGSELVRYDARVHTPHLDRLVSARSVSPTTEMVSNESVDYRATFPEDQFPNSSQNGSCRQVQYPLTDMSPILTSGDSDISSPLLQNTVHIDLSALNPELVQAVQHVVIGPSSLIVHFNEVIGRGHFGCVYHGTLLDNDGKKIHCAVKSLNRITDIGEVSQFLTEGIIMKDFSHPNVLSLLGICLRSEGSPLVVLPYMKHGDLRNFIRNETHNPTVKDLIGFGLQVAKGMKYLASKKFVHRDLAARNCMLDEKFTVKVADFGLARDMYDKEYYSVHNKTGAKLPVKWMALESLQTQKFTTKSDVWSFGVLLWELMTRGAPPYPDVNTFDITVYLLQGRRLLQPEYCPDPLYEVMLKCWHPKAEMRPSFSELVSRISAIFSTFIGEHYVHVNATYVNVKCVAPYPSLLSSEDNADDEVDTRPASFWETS

| inhibition [1] | pKi [2] | Compound |
| --- | --- | --- |
| 2% |  | COc1cc2nccc(Oc3ccc(N)nc3)c2cc1OC |
|  | < 4.52 | COc1cc2nccc(Oc3ccc(NC(=O)N4CCNCC4)nc3)c2cc1OC |
